Data set [1] is described as follows: UV-VIS absorbance maxima of chromogenic conjugates and mixtures. The format is physicochemical. The procedure: “Spectrally narrow” refers to a chromogen having less that 50 nm broadness at its maximum absorbance at half peak height by UV-VIS spectroscopy, measured in +99% water at pH, 6-8 in 10 μM concentration. A “magenta chromogen” is a spectrally narrow chromogen with peak absorbance between 525 and 530 nm, measured in +99% water at pH, 6.0-8.0 in 10 μM concentration. A “greenish-yellow chromogen” is a chromogen with peak absorbance below 475 nm and less than 10% absorbance at 530 nm or above relative to the peak absorbance, measured in +99% water at pH, 6.0-8.0 in 10 μM concentration. A “yellow chromogen” is a chromogen with peak absorbance below 505 nm and less than 10% absorbance at 530 nm or above relative to the peak absorbance, measured in +99% water at pH, 6.0-8.0 in 10 μM concentration. A “cyan chromogen” is a chromogen having maximal absorbance above 615 nm and less than 10% relative absorbance at any wavelength between 530 and 400 nm relative to the peak absorbance, measured in +99% water at pH, 6.0-8.0 m 10 μM concentration. An “orange chromogen” is a “spectrally narrow” chromogen that has maximum absorbance between 495 and 520 nm, measured in +99% water at pH, 6-8 in 10 μM concentration. A “dichroic chromogen” is a chromogen that has at least two absorbance maxima, separated by a local minimum at least 50 nm wide and one further global minimum between 390 and 700 nm measured in water between pH 6 and 8.

Data set [2] concerns the target T1, HRP (Armoracia rusticana, UniProt P00433).
T1 construct: purchased Dako K4061
T1 sequence (P00433 31-338): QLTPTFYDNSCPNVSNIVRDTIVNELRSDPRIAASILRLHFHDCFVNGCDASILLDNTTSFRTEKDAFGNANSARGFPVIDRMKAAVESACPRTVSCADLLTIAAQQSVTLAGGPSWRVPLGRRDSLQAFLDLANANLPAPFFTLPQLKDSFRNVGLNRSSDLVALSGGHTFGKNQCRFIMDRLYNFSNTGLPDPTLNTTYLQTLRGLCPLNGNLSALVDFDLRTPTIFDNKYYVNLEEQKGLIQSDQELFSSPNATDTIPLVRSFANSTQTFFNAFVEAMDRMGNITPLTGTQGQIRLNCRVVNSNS
The data set is described as follows: IHC staining of FFPE human tissues and Her2 control cell lines, Envision+ Dual link HRP visualization, DAB as reference. More on the design: species or system horse radish. The note with it: for colour of IHC stain / stain intensity and crispness compared with DAB: tested in 0.4 to 1 mM; for stain intensity and crispness compared with DAB: low and medium expression targets; for IHC staining performance of Rhodamine 6G derivatives with different 4-hydroxy cinnamic acid derivatives: peroxidase substrate moiety varied.

Data set [3] in a line: Solubility in substrate buffer as function of percentage of NMP. Type of data set: physicochemical. As for the experimental part: Only Compound 6 having a piperazine amide stands out by absorbing at 536 nm, around 5 nm above the esters comprising Compounds 2, 13, 14 and 15 all with abs max within 531-533 nm. […] Addition of NMP to the buffer in all cases increased chromogen solubility. See result table below of the solubility of 2, 13 and 15 as function of percentage of NMP as organic co solvent, 0% representing neat aqueous buffer 50 mM imidazole: HCl, pH 6.8, 3% and 10% said percent.

Data set [4] deals with T1, HRP. The data set is described as follows: Tissue staining with mixtures of chromogens in chromogen buffer. More on the design: species or system horse radish. The settings on record: alone.
The mark [5] stands for this setting: imidazole:HCl buffer (substrate buffer) with 3% NMP, aqueous buffer, 3% NMP in 50 mM imidazole:HCl pH 6.8.
[6] abbreviates: imidazole:HCl buffer (substrate buffer) with 10% NMP, aqueous with cosolvent or surfactant or cyclodextrin, 10% NMP in 50 mM imidazole:HCl pH 6.8.
[7] abbreviates: imidazole:HCl buffer (substrate buffer), 0% NMP, neat aqueous buffer 50 mM imidazole:HCl pH 6.8.

Structures are written as SMILES. In brackets after ≈: the same amount, converted by molar mass.

The term solubility denotes the concentration that dissolves in the medium under given conditions. Read a high solubility as much dissolved substance.

Turning to `CC/N=c1\cc2oc3cc(NCC)c(C)cc3c(-c3ccccc3C(=O)N3CCN(C(=O)c4ccc(-c5c6ccc(=O)cc-6oc6cc(O)ccc56)c(C(=O)O)c4)CC3)c-2cc1C` [6G compound], the “colour of the compound as chromogen” value in data set [1] was “orange”.
With `N=c1ccc2c(-c3ccccc3C(=O)OCC(=O)NCCOCCOCCNC(=O)/C=C/c3ccc(O)cc3)c3ccc(N)cc3oc-2c1` [Compound 1, Rhodamine 110-L12-Cou], in data set [1], the “Absp nm (max)” value stood at 505 nm.
Take `CN(C)c1ccc2c(-c3ccccc3C(=O)OCC(=O)NCCOCCOCCNC(=O)/C=C/c3ccc(O)cc3)c3ccc(=[N+](C)C)cc-3oc2c1` [Compound 3, TetramethylRhodamine-L12-Cou]: in data set [1], the “Absp nm (max)” value was found to be 556 nm. In addition, in data set [2], the “colour of IHC stain” value is on record as “slightly redish purple stains”; the “stain intensity and crispness compared with DAB” value is “more than matched DAB in intensity and crispness”.
With `CCN(CC)c1ccc2c(-c3ccccc3C(=O)OCC(=O)NCCOCCOCCNC(=O)/C=C/c3ccc(O)cc3)c3ccc(=[N+](CC)CC)cc-3oc2c1` [Compound 4, RhodamineB-L12-Cou], the “Absp nm (max)” value in data set [1] was 561 nm. In addition, in data set [2], the “colour of IHC stain” value was “purple stains”; the “stain intensity and crispness compared with DAB” value is “matched DAB in intensity and crispness”.
As to `O=C(/C=C/c1ccc(O)cc1)NCCOCCOCCNC(=O)COC(=O)c1ccccc1C1=c2cc3c4c(c2Oc2c1cc1c5c2CCCN5CCC1)CCC[N+]=4CCC3` [Compound 5, Rhodamine101-L12-Cou], in data set [1], the “Absp nm (max)” value came out at 584 nm.
Consider `CC/N=c1\cc2oc3cc(NCC)c(C)cc3c(-c3ccccc3C(=O)N3CCN(CC(=O)NCCOCCOCCNC(=O)/C=C/c4ccc(O)cc4)CC3)c-2cc1C` [Compound 6, Rhodamine 6G-Pip-L12-Cou], for which the “solubility in the substrate buffer relative to Compound 2” value in data set [3] is on record as “significantly increased solubility”. For the same compound, in data set [1], the “Absp nm (max)” value was determined as 536 nm. For the same compound, in data set [2], the “colour of IHC stain” value is reported as “slightly purplish red stains”; the “stain intensity and crispness compared with DAB” value was “matched DAB in intensity and crispness”.
With `CN(C)c1ccc2c(-c3ccccc3C(=O)N3CCN(CC(=O)NCCOCCOCCNC(=O)/C=C/c4ccc(O)cc4)CC3)c3ccc(=[N+](C)C)cc-3oc2c1` [Compound 7, TM-Rhodamine-Pip-L12-Cou], in data set [1], the “Absp nm (max)” value came to 561 nm.
For the compound `O=C(O)COc1ccc2c(-c3ccccc3C(=O)OCC(=O)NCCOCCOCCNC(=O)/C=C/c3ccc(O)cc3)c3ccc(=O)cc-3oc2c1` [Compound 9, (O-carboxymethyl)-Flu-L12-Cou], the “colour of stain of compound alone” value in data set [4] was “unpleasing greenish yellow”. The “Absp nm (max)” value in data set [1] was determined as 458 nm. Further, in data set [2], the “colour of IHC stain” value is “slightly greenish yellow stains”; the “stain intensity and crispness compared with DAB” value is given as “almost matched DAB in intensity”.
For `O=C(/C=C/c1ccc(O)cc1)NCCOCCOCCNC(=O)COC(=O)c1ccccc1-c1c2ccc(=O)cc-2oc2cc(O)ccc12` [Compound 10, Flu-L12-Cou], the “colour of stain of compound alone” value in data set [4] was “brownish hue”. Moreover, in data set [1], the “Absp nm (max)” value came out at 503 nm.
As for `O=C(/C=C/c1ccc(O)cc1)NCCOCCOCCNC(=O)COC(=O)c1ccccc1-c1c2cc(Cl)c(=O)cc-2oc2cc(O)c(Cl)cc12` [Compound 11, 2,7Dichloro-Flu-L12-Cou], in data set [1], the “Absp nm (max)” value is listed as 517 nm.
On the same count and under the same terms, the value for `O=C(/C=C/c1ccc(O)cc1)NCCOCCOCCNC(=O)CN1CCN(C(=O)c2ccccc2-c2c3ccc(=O)cc-3oc3cc(O)ccc23)CC1` [Compound 12, Flu-Pip-L12-Cou] was 508 nm.
Turning to `CC/N=c1\cc2oc3cc(NCC)c(C)cc3c(-c3ccccc3C(=O)OCC(=O)NCCNC(=O)/C=C/c3ccc(O)cc3)c-2cc1C` [Compound 13, Rho6G-L6-Cou], the solubility came to 900 µM (≈ 595 µg/mL) in data set [3] (setting [5]), 1800 µM (≈ 1190 µg/mL) in data set [3] (setting [6]) and 500 µM (≈ 330 µg/mL) in data set [3] (setting [7]). Besides, in data set [3], the “solubility in the substrate buffer relative to Compound 2” value was “reduced solubility”. The “Absp nm (max)” value in data set [1] turned out to be 532 nm. In addition, the “colour of IHC stain” value in data set [2] was “red stains”. Moreover, the “stain intensity and crispness compared with DAB” value in data set [2] was “matched DAB in intensity and crispness”.
Regarding `CC/N=c1\cc2oc3cc(NCC)c(C)cc3c(-c3ccccc3C(=O)OCCN3CCN(CC(=O)NCCOCCOCCNC(=O)/C=C/c4ccc(O)cc4)CC3)c-2cc1C` [Compound 14, Rhodamine 6G-Et-Pip-L12-Cou], in data set [3], the “solubility in the substrate buffer relative to Compound 2” value was “significantly increased solubility”. For the same compound, in data set [1], the “Absp nm (max)” value is 531 nm. In addition, in data set [2], the “colour of IHC stain” value was “red stains”; the “stain intensity and crispness compared with DAB” value is “matched DAB in intensity and crispness”.
Regarding `CC/N=c1\cc2oc3cc(NCC)c(C)cc3c(-c3ccccc3C(=O)OCC(=O)NCCOCCOCCNC(=O)COCC(=O)NCCOCCOCCNC(=O)/C=C/c3ccc(O)cc3)c-2cc1C` [Compound 15, Rho6G-L27-Cou], the solubility in data set [3] (setting [5]) is 1900 µM (≈ 1890 µg/mL); in data set [3] (setting [6]), 6000 to 7000 µM (≈ 5970 to 6970 µg/mL); in data set [3] (setting [7]) it was 1700 µM (≈ 1690 µg/mL). Also, in data set [3], the “solubility in the substrate buffer relative to Compound 2” value is given as “significantly increased solubility”. In data set [1], the “Absp nm (max)” value turned out to be 533 nm. For the same compound, the “colour of IHC stain” value in data set [2] is on record as “deep blue stains”. Further, the “stain intensity and crispness compared with DAB” value in data set [2] is “more than matched DAB in intensity and crispness”.
For `CC/N=c1\cc2oc3cc(NCC)c(C)cc3c(-c3ccccc3C(=O)OCC(=O)NCCOCCOCCNC(=O)/C=C/c3ccc(O)c(O)c3)c-2cc1C` [Compound 16, Rhodamine 6G-L12-Caf], in data set [1], the “Absp nm (max)” value was 531 nm. Besides, the “IHC staining performance of Rhodamine 6G derivatives with different 4-hydroxy cinnamic acid derivatives” value in data set [2] is recorded as “performed poorly”.
Turning to `CC/N=c1\cc2oc3cc(NCC)c(C)cc3c(-c3ccccc3C(=O)OCC(=O)NCCOCCOCCNC(=O)/C=C/c3ccc(O)cc3O)c-2cc1C` [Compound 17, Rhodamine 6G-L12-2,4-OH-Cin], the “Absp nm (max)” value in data set [1] stood at 531 nm. Also, in data set [2], the “IHC staining performance of Rhodamine 6G derivatives with different 4-hydroxy cinnamic acid derivatives” value is listed as “strong stains but also some background”.
On the same counts, the results for `CC/N=c1\cc2oc3cc(NCC)c(C)cc3c(-c3ccccc3C(=O)OCC(=O)NCCOCCOCCNC(=O)/C=C/c3ccc(O)c(OC)c3)c-2cc1C` [Compound 18, Rhodamine 6G-12-Fer] are 531 nm and “performed acceptably”.
Turning to `CC/N=c1\cc2oc3cc(NCC)c(C)cc3c(-c3ccccc3C(=O)OCC(=O)NCCOCCOCCNC(=O)/C=C/c3cc(OC)c(O)c(OC)c3)c-2cc1C` [Compound 19, Rhodamine 6G-L12-Sin], the “Absp nm (max)” value in data set [1] came to 531 nm. Further, in data set [2], the “IHC staining performance of Rhodamine 6G derivatives with different 4-hydroxy cinnamic acid derivatives” value was “performed poorly”.
For `CNCCNC` [Compound 34A, N,N′-dimethyl ethylenediamine], the “absorbance of Rhodamine 6G secondary amide / ester derivatives” value in data set [1] worked out at 531 nm.
`CCN(CC)c1ccc(C(=C2C=CC(=[N+](CC)CC)C=C2)c2cc(OCC(=O)NCCOCCOCCNC(=O)/C=C/c3ccc(O)cc3)c(S(=O)(=O)O)cc2S(=O)(=O)O)cc1` [Compound 35]: the absorbance maximum in data set [1] (in neutral water) is on record as 640 nm.
`CC/N=c1\cc2oc3cc(NCC)c(C)cc3c(-c3ccccc3C(=O)N3CCN(C(=O)c4ccccc4-c4c5ccc(=O)cc-5oc5cc(OCC(=O)NCCOCCOCCNC(=O)OC(C)(C)C)ccc45)CC3)c-2cc1C` [Formula XIVb]: the “colour of the compound as chromogen” value in data set [1] is “orange-red color”.
